In patent US20210238169A1, “PROCESS FOR PREPARING A COMPOUND OF FORMULA (XIII)” (PULMOCIDE LIMITED, priority 2014, published 2021):
Values after ≈ are worked out from the molar mass of the structure shown. Read-outs that look alike come from different tables or passages of the source.

Tests used:
[1] = Cell viability: resazurin assay; assay type: cell-based, human; conditions: human, n = 1-5
Experimental: BEAS2B cells were seeded in 384-well plates (100 μL; 3000/well/; BD Falcon, Catalogue No 353962) in RPMI-LHC8 (RPMI-1640 and LHC8 media combined in equal proportions) one day before experimentation. For cell-free control wells, RPMI-LHC8 (100 μL) was added. Test compounds (0.5 μL of a DMSO solution) were added to give a final DMSO concentration of 0.5% using an Integra VIAFLO 96 (Integra, Zizers, Switzerland). BEAS2B cells were incubated with each test compound for 1 day (37° C./5% CO2 in RPMI-LHC8). After addition of resazurin stock solution (5 μL, 0.04%) the plates were incubated for a further 4 hr (37° C./5% CO2). The fluorescence of each well at 545 nm (excitation) and 590 nm (emission) was determined using a multi-scanner (Clariostar: BMG Labtech). The percentage loss of cell viability was calculated for each well relative to vehicle (0.5% DMSO) treatment. Where appropriate, a CC50 value was calculated from the concentration-response curve generated from the concentration-response curve for each test compound.

Candida glabrata = assay: Fungus panel screening, CLSI broth microdilution; assay type: cell-based; conditions: Nakaseomyces glabratus; for MIC: read-out: MIC100
Experimental: (§1) Fungus panel screening was conducted by Eurofins Panlabs Inc. The MIC and MIC50 values of the test articles were determined following the guidelines of the Clinical and Laboratory Standards Institute, broth microdilution methods for yeast (CLSI M27-A2), (CLSI, 2002) and for filamentous fungi (CLSI M38-A), (CLSI, 2008).

Chaetomium globosum = assay: Fungus panel screening, CLSI broth microdilution; assay type: cell-based; conditions: strain ATCC44699, visual inspection (CLSI); for MIC: read-out: MIC100
Experimental: as §1

Trichophyton rubrum = assay: Fungus panel screening, CLSI broth microdilution; assay type: cell-based; conditions: strain ATCC10218, visual inspection (CLSI); for MIC: read-out: MIC100
Experimental: as §1

[2] = tested on: Aspergillus fumigatus (NCPF2010); assay: Aspergillus fumigatus invasion in human alveoli bilayers (transwells), GM in lower chamber; assay type: cell-based; conditions: for DFB50 (days taken to reach a fungal burden of 50% of control) / GM Levels in the Lower Chamber, % inhibition vs. control / GM Levels in the Lower Chamber, OD value: Compound (I) 0.1 μg/mL upper chamber, Posaconazole 0.01 μg/mL lower chamber
Experimental: In vitro models of human alveoli, consisting of a bilayer of human alveolar epithelial cells and endothelial cells, were prepared as previously described (Hope et al., 2007). […] Primary human pulmonary artery endothelial cells (HPAEC) were harvested and diluted to 10^6 cells/mL in EGM-2 media (Lonza, Basel, Switzerland). Transwells were inverted and the cell suspension (100 μL/well) was applied to the base of each transwell. The inverted transwells were incubated at RT within a flow hood for 2 hr after which they were turned upright. EGM-2 media was added to the lower (700 μL/well) and upper (100 μL/well) compartments and the transwells were incubated for 48 hr (37° C., 5% CO2). The EGM-2 media in the lower compartment was then replaced with fresh EGM-2 media. A549 cells were harvested and diluted to 5×10^5 cells/mL in 10% EBM, then added to the upper compartment (100 μL/well) of all transwells and the plates incubated for 72 hr (37° C., 5% CO2). Conidia of Aspergillus fumigatus (the itraconazole sensitive strain NCPF2010 and the itraconazole resistant strain TR34-L98H) were cultured separately in Sabouraud dextrose agar for 3 days. A stock conidia suspension of either strain was prepared from a Sabouraud dextrose agar culture by washing with PBS-tween (10 mL; PBS containing 0.05% Tween-20, 100 U/mL Penicillin and 100 U/mL Streptomycin). The conidia count was assessed using a Neubauer haemocytometer and adjusted to 10^6 conidia/mL with PBS. A working stock of conidia was prepared in EBM (conc of 10^5 conidia/mL) immediately prior to use.
The media in the upper compartment was aspirated and that containing the appropriate test and reference compounds, or vehicle, were added (100 μL/well). Transwells were then transferred into the 24-well plate containing the test and reference compounds or DMSO vehicle. After incubation for 1 hr (35° C., 5% CO2) the conidia suspension (10 μL/well) was added to the upper compartment of each transwell. Plates were then incubated for 24 hr (35° C., 5% CO2). Supernatants from each compartment (5 μL/compartment) were collected and stored (−20° C.). Media was replaced daily after collection of the supernatants and all wells were treated with test and reference compounds or with DMSO, as described above, for 3 days. Samples continued to be collected until fungal growth was visible by eye in all transwells. The levels of GM in the supernatant in lower compartment were then measured by ELISA (BioRad, CA, USA) as an index of Aspergillus fumigatus invasion.

[3] = strain ATCC36583, visual inspection (CLSI)
[4] = strain R363, visual inspection (CLSI)

Compound	CC50 at 1 day ([1]; BEAS2B cells) [µM]	MIC50 (Candida glabrata; [3]) [µg/mL]	MIC (Candida glabrata; [3]) [µg/mL]	MIC50 (Candida glabrata; [4]) [µg/mL]	MIC (Candida glabrata; [4]) [µg/mL]	MIC50 (Chaetomium globosum) [µg/mL]	MIC (Chaetomium globosum) [µg/mL]	MIC50 (Trichophyton rubrum) [µg/mL]	MIC (Trichophyton rubrum) [µg/mL]	DFB50 (days taken to reach a fungal burden of 50% of control) [2] [days]	GM Levels in the Lower Chamber, % inhibition vs. control ([2]; Treatment Day 1) [%]	GM Levels in the Lower Chamber, OD value ([2]; Treatment Day 1) [OD]	GM Levels in the Lower Chamber, % inhibition vs. control ([2]; Treatment Day 2) [%]	GM Levels in the Lower Chamber, OD value ([2]; Treatment Day 2) [OD]	GM Levels in the Lower Chamber, % inhibition vs. control ([2]; Treatment Day 3) [%]	GM Levels in the Lower Chamber, OD value ([2]; Treatment Day 3) [OD]	GM Levels in the Lower Chamber, % inhibition vs. control ([2]; Treatment Day 4) [%]	GM Levels in the Lower Chamber, OD value ([2]; Treatment Day 4) [OD]	GM Levels in the Lower Chamber, % inhibition vs. control ([2]; Treatment Day 5) [%]	GM Levels in the Lower Chamber, % inhibition vs. control ([2]; Treatment Day 7) [%]	further results
Cc1cc(N2CCN(c3ccc(C(=O)Nc4ccc(F)cc4)cc3)CC2)ccc1OC[C@@H]1CO[C@@](Cn2cncn2)(c2ccc(F)cc2F)C1 [Compound (I), 4-(4-(4-(((3R,5R)-5-((1H-1,2,4-triazol-1-yl)methyl)-5-(2,4-difluorophenyl)tetrahydrofuran-3-yl)methoxy)-3-methylphenyl)piperazin-1-yl)-N-(4-fluorophenyl)benzamide]	> 12.2	0.5 (≈ 0.732 µM)	> 8	0.5 (≈ 0.732 µM)	> 8	0.063 (≈ 0.0923 µM)	> 8	< 0.008	0.031 (≈ 0.0454 µM)	1.13	86	0.091	3.4	1.15	3.7	1.14	4.5	1.13	0.3	0.9	effect of combination therapy on invasion in alveoli bilayers ([2]; Compound (I) combined with intraconazole, voriconazole or caspofungin (results not shown)): synergistic or additive effect; GM Levels in the Lower Chamber, OD value ([2]; Treatment Day 7): 1.16 OD; GM Levels in the Lower Chamber, % inhibition vs. control ([2]; Treatment Day 8): 2.8%; GM Levels in the Lower Chamber, OD value ([2]; Treatment Day 8): 1.13 OD
C[C@@H](c1ncncc1F)[C@](O)(Cn1cncn1)c1ccc(F)cc1F [Voriconazole]		0.25 (≈ 0.716 µM)	> 8	> 8	> 8	0.5 (≈ 1.43 µM)	1 (≈ 2.86 µM)	< 0.008	0.063 (≈ 0.18 µM)												CC50 at 1 day ([1]; read-out: BEAS2B Cell Viability CC50): > 28.6 µM
CC[C@@H]([C@H](C)O)n1ncn(-c2ccc(N3CCN(c4ccc(OC[C@@H]5CO[C@@](Cn6cncn6)(c6ccc(F)cc6F)C5)cc4)CC3)cc2)c1=O [Posaconazole]	> 14.3	0.5 (≈ 0.713 µM)	> 8	0.5 (≈ 0.713 µM)	> 8	0.13 (≈ 0.186 µM)	0.25 (≈ 0.357 µM)	< 0.008	0.031 (≈ 0.0442 µM)	1.45	91	0.064	15	1.01	4.1	1.14	1.1	1.17	−0.6	0.3	GM Levels in the Lower Chamber, OD value ([2]; Treatment Day 0): 0 OD; GM Levels in the Lower Chamber, OD value ([2]; Treatment Day 5): 1.18 OD; GM Levels in the Lower Chamber, % inhibition vs. control ([2]; Treatment Day 6): −1.1%; GM Levels in the Lower Chamber, OD value ([2]; Treatment Day 6): 1.19 OD; GM Levels in the Lower Chamber, OD value ([2]; Treatment Day 7): 1.17 OD; GM Levels in the Lower Chamber, % inhibition vs. control ([2]; Treatment Day 8): 0.8%; GM Levels in the Lower Chamber, OD value ([2]; Treatment Day 8): 1.15 OD
